Test results: patent US12287332B2, “Test cartridges” (First Light Diagnostics, Inc., priority 2018, dated 2025)
Values after ≈ are worked out from the molar mass of the structure shown.

Experiments:
Format in all cases: cell-based
E. coli ATCC 25922 = assay: Novel 4.5-hour AST in presence of beta-lactamase producing K. pneumoniae, Example 11; settings: Escherichia coli, ATCC25922, 4.5 h; sensitive E. coli strain; increasing amounts of beta-lactamase producing K. pneumoniae; read-out: MIC, novel 4.5-hour AST method
Description: Experimental procedure. Preparation of Antibiotic Plates: Antibiotic plates prepared as described in Impact of Non-Sterile Sample on Target MIC example.
E. coli was diluted to 5×10^5 CFU/mL (CLSI standard concentration) while K. pneumoniae was diluted to various inoculum (ranging from 1×10^6 and 5×10^8 CFU/mL).
30 μL of each processed urine was added to 70 μL of 1× cation-adjusted Mueller-Hinton Broth (MHBII) containing species-specific Alexa647N-labeled DNA oligonucleotide FISH probes and unlabeled DNA helper probes. […] 10 μL of the prepared magnetic particle mixture was then added to the well.
Four-Hour Growth: The E. coli was tested in the presence of varying inoculum of K. pneumoniae-OXA for susceptibility against 2 antimicrobial agents: Imipenem and Meropenem.
100 μL of each well of the incubated sample-antibiotic plate was transferred to a corresponding well of a dehydrated buffer plate and combined with FISH probes, helper probes, magnetic particles, and focus particles in the same manner as described above for assay time zero.
All data was then compared to CLSI standard BMD.

[1] = system: K. pneumoniae strain in clinical urine sample BIUR0084; assay: Automated MultiPath AST cartridge on clinical urine, Example 8; settings: 4 h growth, fold growth value of 2, matched CLSI broth microdilution
K. pneumoniae CDC0126 = assay: Novel rapid AST (4 h differential growth, FISH cell counting) in urine matrix, Example 7; settings: Klebsiella pneumoniae, 4 h growth, fold-growth threshold 20, read-out: MIC generated by novel rapid AST method
Description: Bacterial cell preparation: 50 bacterial strains with known resistance profiles were collected from either the ATCC or from the CDC antibiotic resistance bank (AR bank) and are shown in Table A. Bacterial cultures for each of these were obtained by inoculating Trypticase Soy Broth (TSB, Hardy Diagnostics cat. U65) with 3 to 5 colonies from fresh tryptic soy agar plates (TSA, BD cat. 221185) and growing for 1.5 to 3 hours at 35° C. to achieve log-phase growth. Using optical density at 600 nm to estimate cell concentration, each culture was diluted to approximately 5×10^6 colony-forming units (CFU)/mL in cation-adjusted Mueller Hinton II (MHBII, Teknova cat. M5860).
A reaction mixture was prepared consisting of 30 μL processed urine, 10 μL of the 5×10^6 CFU/mL bacterial dilution, 60 μL MHBII (1× final concentration in 100 μL) and the appropriate species-specific Alexa647N-labeled DNA oligonucleotide FISH probe and its associated unlabeled DNA helper probes for the target bacterial species. […] 10 μL of the prepared magnetic particle mixture was then added to the well. […]
Four Hour Growth: While the time zero cell quantification was occurring, 12 μL of prepared bacterial culture, 36 uL pooled human urine processed as done for the assay time zero, 60 uL of 2×MHB II (Teknova, cat. #M5860) and 2 uL water was added to each well of the prepared antibiotic plate. […]

| Compound | sensitive/resistant call by MultiPath [1] | further results |
| --- | --- | --- |
| C[C@@H](O)[C@H]1C(=O)N2C(C(=O)O)=C(SCCN=CN)C[C@H]12 [Imipenem] |  | MIC (E. coli ATCC 25922): < 1 µg/mL |
| Cc1nnc(SCC2=C(C(=O)O)N3C(=O)[C@@H](NC(=O)Cn4cnnn4)[C@H]3SC2)s1 [Cefazolin] | resistant |  |
| O=C(O)c1cn(C2CC2)c2cc(N3CCNCC3)c(F)cc2c1=O [Ciprofloxacin] |  | MIC (K. pneumoniae CDC0126): 0.25 µg/mL (≈ 0.754 µM) |
| Trimethoprim/Sulfamethoxazole | resistant |  |
